The source made the active and inactive calls. No cut-off for these calls is given here.
Legend:
[1] = tested on: SH-SY5Y; test: Cytotoxicity against human SH-SY5Y cells assessed as reduction in cell viability by CCK8 assay; type: functional, cell-based
[2] = tested on: SH-SY5Y; test: Induction of apoptosis in human SH-SY5Y cells assessed as nuclear condensation at 30 uM by Hoechst 33342 staining based inverted fluorescent microscopic method (reference value: 2.1%); type: functional
[3] = tested on: SH-SY5Y; test: Induction of apoptosis in human SH-SY5Y cells assessed as nuclear condensation at 1 uM by Hoechst 33342 staining based inverted fluorescent microscopic method (reference value: 2.1%); type: functional
[4] = tested on: SH-SY5Y; test: Induction of apoptosis in human SH-SY5Y cells assessed as nuclear condensation at 1 to 30 uM by Hoechst 33342 staining based inverted fluorescent microscopic method; type: functional, cell-based; conditions: dose microM 1-30
[5] = tested on: SH-SY5Y; test: Induction of apoptosis in human SH-SY5Y cells assessed as nuclear fragmentation at 1 to 30 uM by Hoechst 33342 staining based inverted fluorescent microscopic method; type: functional, cell-based; conditions: dose microM 1-30
[6] = tested on: SH-SY5Y; test: Induction of apoptosis in human SH-SY5Y cells assessed as increase in caspace-3/7 expression at 1 to 30 uM after 12 hrs by Caspase-Glo assay; type: functional, cell-based; conditions: dose microM 1-30, time 12.0 hrs
[7] = tested on: SH-SY5Y; test: Induction of apoptosis in human SH-SY5Y cells assessed as decrease in ATP level at 1 uM by CellTiter-Glo assay relative to control; type: functional; parameters: scale not given: the % may be the effect or the level left
[8] = tested on: SH-SY5Y; test: Induction of apoptosis in human SH-SY5Y cells assessed as decrease in ATP level at 30 uM by CellTiter-Glo assay relative to control; type: functional; parameters: scale not given: the % may be the effect or the level left

| SMILES | Activity [1] | IC50 [1] [µM] | Activity [2] [%] | Activity [3] [%] | Activity [4] | Activity [5] | Activity [6] | Activity [7] [%] | Activity [8] [%] |
| --- | --- | --- | --- | --- | --- | --- | --- | --- | --- |
| COc1cc(OC)c2c(c1)-c1c3c(cc4c(=O)onc(c14)[C@H]2SCC(N)=O)OCO3 | Dose-dependent effect | 11.2 |  |  |  |  |  |  |  |
| COc1ccc(OC)c2c1cc1c3c(cc4c(c32)OCO4)C(=O)N1 | Dose-dependent effect | 21.2 |  |  |  |  |  |  |  |
| COc1ccc(OC)c2c1-c1c3c(cc4c(=O)onc(c14)[C@H]2SCC(N)=O)OCO3 | Dose-dependent effect | 2.7 | 70.9 | 36.8 | Active | Active | Active | 57.8 | 51.4 |

From ChEMBL document CHEMBL4699509, “Asaroidoxazines from the Roots of Asarum asaroides Induce Apoptosis in Human Neuroblastoma Cells” (J Nat Prod, 2020)
